Measurements reported in publication PMC10747112, “Triphenylphosphine Derivatives of Allylbenzenes Express Antitumor and Adjuvant Activity When Solubilized with Cyclodextrin-Based Formulations” (Pharmaceuticals, 2023).
Converted amounts (≈) assume the structure as drawn. Like-named read-outs stand apart in the source and are kept apart here. Marks after values point to notes of the source that are not given here.

Tests used:
[1] = Solubility by UV spectroscopy (PBS, with and without M-β-CD); assay type: physicochemical; details: PBS
Method: On the contrary, their complexes with M-β-CD are soluble, and a clear peak in the UV spectrum is pronounced (225 nm). Based on UV spectra data in the presence of M-β-CD, the increase in solubility of apiol-PPh3 and analogues by a second order of magnitude is observed (Table 2).
The solubility of apiol and apiol-PPh3 (or analogues) in aqueous solution was determined by UV spectroscopy. UV spectra were recorded on the UltraSpec 2100 pro device (AmerSham Biosciences, Cambridge, UK) three times. The substances were dissolved in acetonitrile followed by recording the UV spectra at various cytostatics’ concentrations, and then we plotted calibration dependencies. Next, saturated solutions of substances in water were prepared, and the spectra of the aqueous solutions were recorded. Considering the extinction coefficients in water and acetonitrile to be approximately equal, the solubility was determined.

[2] = system: A549 cells; test: MTT assay, cytotoxic activity against A549; assay type: cell-based; details: Homo sapiens
Method: Concentrations of the active substance varied from 10^−2 to 10^−4 M. For MTT assay and biological experiments, substances in the concentration range from 10^−3 to 10^−9 M were studied by the dilution of initial ones in a cell growth medium or buffer.
Adenocarcinomic human alveolar basal epithelial cells A549 cell lines (Manassas, VA, USA) were cultured in RPMI-1640 medium, linear cells of the embryonic kidney human epithelium (HEK293T) were grown in DMEM medium as described earlier. Cell lines were obtained from Lomonosov Moscow State University Depository of Live Systems Collection and Laboratory of Medical Biotechnology, Institute of Biomedical Chemistry (Moscow, Russia).
(§1) The cytotoxic activity of paclitaxel, Apiol-PPh3 and analogues was determined using an MTT test. Paclitaxel-adjuvant synergism coefficients (SC) were calculated as CV (paclitaxel) × CV (alone adjuvant)/CV (combo paclitaxel + adjuvant), where CV represents the cell viability. The synergy coefficient can be interpreted as strong synergy (SC > 2), synergy (2 > SC > 1.2), indifference/additivity (1.2 > SC > 0.8), antagonism (0.8 > SC > 0.5), and inhibition (SC < 0.5), as described earlier.

[3] = system: A549 cells; test: MTT assay, synergy of adjuvants with paclitaxel against A549; assay type: cell-based, human; details: X − M-β-CD, SC = CV(paclitaxel) × CV(adjuvant)/CV(combo)
From the text: Apparently PPh3 derivatives effectively penetrate into cancer cells along a potential gradient, inhibit efflux proteins and mitochondrial enzymes, causing the apoptosis of cancer cells, with IC50 values being lower by two orders of magnitude than the corresponding allylbenzene (Table 3). […] For allylbenzenes, a synergy close to additivity (the cytostatic effect of adjuvant + paclitaxel is almost equal to the sum of their individual contributions) was observed; for PPh3 derivatives, a pronounced increase in the action of paclitaxel is characteristic (the cytostatic effect of adjuvant + paclitaxel is much higher (>) than the sum of their individual contributions). For apiol-PPh3, the most pronounced effect of increasing the activity of paclitaxel was observed (Figure 4b).
Figure 4 Viability of A549 cells in the presence of paclitaxel and allylbenzenes’ PPh3 derivatives in the form of complexes with M-β-CD (1:5 mol/mol). MTT assay. (a) Dose–effect graphs. (b) MTT assay results for 100 nM paclitaxel alone and combined with allylbenzenes’ PPh3 derivatives in the form of complexes with M-β-CD (1:5 mol/mol).
as §1

[4] = set-up: unit not given here; details: unmodified allylbenzenes; cited from earlier work
[5] = system: cytochrome P450 3A4; details: read-out: IC50 cytochrome P450 3A4; cited from earlier work
[6] = system: cancer cells; set-up: method as in PMID 35128247; details: dillapiol 25–50 µM; cited from earlier work
[7] = system: erythrocytes; test: Hemolytic activity; assay type: cell-based; details: X in M-β-CD; 0.1 mg/mL; released hemoglobin relative to 0.05% Triton X-100 control
From the text: (§2) Hemolytic activity and thrombogenicity are the primary parameters for evaluating the safety of medical formulations. The phenotypic sea urchin embryo assay developed by colleagues is a visual way to study the toxicity of formulations in vivo. The sea urchin and human genomes contain more than 7000 common genes, including orthologs associated with a number of human diseases. Therefore, sea urchins can be considered as a reliable and versatile model organism for studying the safety of new and existing cytotoxic formulations in vivo. Table 5 presents data on the % of erythrocyte hemolysis, the degree of whole blood thrombosis of apiol-PPh3 and analogues, and data of phenotypic sea urchin embryo assay. Thus, the non-toxicity of PPh3 derivatives of allylbenzenes for normal non-cancer cells, as well as the selectivity of action against cancer cells, is shown. The selectivity of cytotoxic action against cancer cells in comparison with normal cells can be explained by the fact that the PPh3- cation provides selective accumulation and reduction in the mitochondrial membrane potential of the transformed cancer cells. Cyclodextrin (M-β-CD) and heparin are non-toxic (and approved by the FDA for intravenous application).
(§3) The hemolytic activity and thrombogenicity of apiol-PPh3 and analogues were studied using an earlier published technique.

[8] = system: whole blood; test: Thrombogenicity (whole blood thrombosis); details: X in M-β-CD; 0.1 mg/mL; relative to control with microscopic glass particles
From the text: as §2, §3

[9] = system: sea urchin embryos; test: Phenotypic sea urchin embryo assay; assay type: in vivo; details: X in M-β-CD
From the text: as §2
Adult sea urchins, Paracentrotus lividus L. (Echinidae), were collected from the Mediterranean Sea on the Cyprus coast and kept in an aerated seawater tank and were used to study the cleavage alteration of Apiol-PPh3 and analogues. Experiments with sea urchin embryos comply with the requirements of biological ethics.

[10] = system: HEK293T cells; test: FTIR spectroscopy of HEK293T cells during incubation with drug (penetration/adsorption); assay type: cell-based, human; details: 60 min incubation (apiol-PPh3 in M-β-CD) or pre-incubation (doxorubicin controls); 37 °C
From the text: The main cell structural units that contribute to the absorption of IR diapason can be assigned as follows (Figure 5): lipids of the cell membrane (2800–3000 cm^−1), proteins, especially transmembrane (1500–1700 cm^−1), phosphate groups of DNA (1240 cm^−1) and carbohydrates, including lipopolysaccharides (900–1100 cm^−1). Previously, we developed a technique for tracking the penetration and adsorption of the drug into cells using FTIR spectroscopy: dramatic changes in the intensity of the peaks of amide 1 and amide 2 indicate effective penetration of the drug into cells and vice versa.
Here, we present the real-time data of FTIR spectroscopy during the incubation of a suspension of HEK293T cells with apiol-PPh3 in M-β-CD (Figure 5). […] There is only a shift of the peak of amide 1 to the low-frequency region (inserts in Figure 5, the normalized intensity is shown) and amide 2 to the high-frequency region with the simultaneous appearance of the shoulder. This indicates the only adsorption of drug molecules on the cell surface, which is also confirmed by a weak increase in the intensity of the peaks at 2850–3000 cm^−1 corresponding to the valence vibrations of the CH2 groups (lipid bilayer). Thus, PPh3 derivatives show only marginal activity against normal cells.

[11] = A549, read-out: −lg (IC50) of X in M-β-CD against A549
[12] = A549, X in M-β-CD 1:5 mol/mol, MTT, read-out: −lg (IC50) of X in M-β-CD against A549 (converted)

For `C=CCc1cc(OC)c(OC)c(OC)c1OC` [Allyltetramethoxybenzene, allyltetramethoxybenzene, reference compound], the “Solubility in PBS” value [1] was 160 ± 20 µM (≈ 38.1 µg/mL), the IC50 [2, 11] was 316 µM and the “Synergy Coefficients of Adjuvants and PPh3–Adjuvants with Paclitaxel” value (“Synergy Coefficients” below) [3] was 1.4 ± 0.2. The “−lg Kd (X − M-β-CD)” value [4] was 3.4 ± 0.3.
With `C=CCc1cc(OC)c2c(c1OC)OCO2` [Apiol, 1-allyl-2,5-dimethoxy-3,4-methylenedioxybenzene] the “Solubility in PBS” value [1] was 130 ± 10 µM (≈ 28.9 µg/mL), the IC50 [2, 11] was 251 µM and the “Synergy Coefficients” value [3] was 1.3 ± 0.2. For the same compound, the “−lg Kd (X − M-β-CD)” value [4] was 2.6 ± 0.3 and the IC50 [5] was 7.9 µM.
In the case of `C=CCc1cc2c(c(OC)c1OC)OCO2` [Dillapiol, dillapiol], the IC50 [2, 12] is listed as 631 µM, the “Synergy Coefficients” value [3] is listed as 1.1 ± 0.1 and the “−lg Kd (X − M-β-CD)” value [4] is listed as 2.7 ± 0.5. For the same compound, the “effect on cell cycle / apoptosis of cancer cells” value [6] was “induced G0/G1 cell cycle arrest”.
With `C=CCc1cc(OC)c2c(c1)OCO2` [Myristicin, myristicin, reference compound] the solubility ([1]; aqueous buffer, thermodynamic from solid, read-out: Solubility in PBS) was 30 ± 7 µM (≈ 5.77 µg/mL), the IC50 [2, 12] was 1260 µM and the “Synergy Coefficients” value [3] was 0.9 ± 0.2. The “−lg Kd (X − M-β-CD)” value [4] was 3.5 ± 0.2.
In the case of `CC(=O)O[C@H]1C(=O)[C@@]2(C)[C@H]([C@H](OC(=O)c3ccccc3)[C@]3(O)C[C@H](OC(=O)[C@H](O)[C@@H](NC(=O)c4ccccc4)c4ccccc4)C(C)=C1C3(C)C)[C@]1(OC(C)=O)CO[C@@H]1C[C@@H]2O` [Paclitaxel, paclitaxel, reference compound], the IC50 [2, 12] is reported as 0.631 µM, the “Hemolysis Index” value [7] is reported as <0.5 (p = 0.012) % and the “Thrombosis Index” value [8] is reported as 0.6 ± 0.1%. For the same compound, the “Concentration Causing Changes in Sea Urchin Embryos” value [9] was >4 *** μM.
For `COc1cccc2c1C(=O)c1c(O)c3c(c(O)c1C2=O)C[C@@](O)(C(=O)CO)C[C@@H]3O[C@H]1C[C@H](N)[C@H](O)[C@H](C)O1` [doxorubicin, reference compound], the “changes in FTIR amide I and II peak intensity of HEK293T cells (drug penetration)” value [10] was “Dramatic changes in the intensity of the amide 1 and amide 2 peaks”.
